“And” between values parts separate entries of the source, which are not always exact repeats. Equal values may be shown once.
Columns and labels:
[1] = test system: adhesion formation at the sidewall injury; assay: Rabbit peritoneal sidewall adhesion model, 1 week dosing via Alzet miniosmotic pump; assay type: in vivo; set-up: key to Adhesion Tenacity: 0: No adhesions; 1: mild, easily dissectible adhesions; 2: moderate adhesions; non-dissectible, does not tear organ; 3: dense adhesions; non-dissectible, tears when removed; conditions: for Adhesion Area Percentage / Adhesion Tenacity: 10 microliter/hr over 7 days, sacrifice after 21 days, individual animals 1-7; for Adhesion Tenacity: score 0-3; for mean adhesion score: group mean of 7 rabbits, placebo control 100±0
Protocol: In the peritoneal sidewall model, rabbits were pre-anesthetized with 1.2 mg/kg acetylpromazine and anesthetized with a mixture of 55 mg/kg ketamine hydrochloride and 5 mg/kg xylazine intramuscularly. Following preparation for sterile surgery, a midline laparotomy was performed. A 3 cm×5 cm area of peritoneum and transversus abdominis muscle was removed on the right lateral abdominal wall. The cecum was exteriorized and digital pressure was exerted to create subserosal hemorrhages (trauma and loss of blood flow) over all cecal surfaces. The cecum was then returned to its normal anatomic position. Tranilast contained in a delivery vehicle as described below was placed in an Alzet® miniosmotic pump (Alza Corporation, Palo Alto, Calif.) to allow continuous release of the molecule through the postsurgical interval. The Alzet miniosmotic pump was placed in the subcutaneous space and a delivery tube connected the pump with the site of injury at the sidewall. Only the delivery vehicle was placed in the pump of control rabbits. The abdominal wall and skin were closed in a standardized manner.
After 21 days, the rabbits were sacrificed and the percentage of the area of the sidewall injury that was involved in adhesions was determined. In addition, the tenacity of the adhesion formed was scored using a system as follows:
With the sidewall model, an initial score to represent the overall extent of adhesions is given (0 to 3).
The percentage of a surface of the sidewall involved in adhesions to various organs are given in the tables below to quantify the overall adhesion score. A reduction in the area and the tenacity of the adhesions would be considered beneficial and efficacious.
(§1) The efficacy of Pemirolast in inhibiting adhesion formation was evaluated using a single pump, filled with one of three dosage levels of mg of Pemirolast per ml of delivery vehicle (0.625 mg/ml, 6.25 mg/ml or 62.5 mg/ml), or placebo control (saline). The drug was placed in an Alzet miniosmotic pump and delivered over 7 days at a rate of 10 microliter/hr. The animals were sacrificed after 21 days.

[2] = Necropsy observations in the sidewall adhesion study; assay type: in vivo, rabbit
Protocol: as §1
However, there was inflammation observed at the abdominal cavity in 1 of 7 and 3 of 7 rabbits at the medium and high dose of drug, respectively.

Cc1cccn2c(=O)c(-c3nnn[nH]3)cnc12 [Pemirolast, 9-methyl-3-(1H-tetrazol-5-yl)-4H-pyrido [1,2-α]pyrimidin-4-one potassium]
Adhesion Area Percentage ([1]; 0.625 mg/ml in pump): 80% (2×) and 100% (4×) and 70%
Adhesion Tenacity ([1]; 0.625 mg/ml in pump): 1 (5×) and 2 (2×)
mean adhesion score ([1]; 0.625 mg/ml): 90.0±4.9
Adhesion Area Percentage ([1]; 6.25 mg/ml in pump): 50% and 80% (2×) and 100% (2×) and 70% and 60%
Adhesion Tenacity ([1]; 6.25 mg/ml in pump): 1 (6×) and 2
mean adhesion score ([1]; 6.25 mg/ml, p=0.007): 77.1±7.1
Adhesion Area Percentage ([1]; 62.5 mg/ml in pump): 70% (2×) and 50% (2×) and 80% (2×) and 100%
Adhesion Tenacity ([1]; 62.5 mg/ml in pump): 2 (3×) and 1 (4×)
mean adhesion score ([1]; 62.5 mg/ml, p=0.001): 71.4±6.7
tenacity of the adhesions formed, relative to control ([1]; all dose groups, analysis of variance on the ranks): significant reductions
area of adhesion formation, relative to control ([1]; sidewall model, reductions in the groups that received the higher doses): reduced the area of adhesion formation
clinical signs associated with administration ([2]; at necropsy, all doses): no clinical signs
inflammation observed at the abdominal cavity (rabbits affected) ([2]; high dose (62.5 mg/ml)): 3 of 7
inflammation observed at the abdominal cavity (rabbits affected) ([2]; medium dose (6.25 mg/ml)): 1 of 7
